Assay results: BindingDB's records for doi:10.1016/j.bmc.2012.10.036 (Glaxosmithkline, 2012)

Assay: Inhibition of glucocorticoid receptor in human H13 cells assessed as inhibition of glucocorticoid-induced cell proliferation after 3 hrs by [3H]-thymidine incorporation assay

CC[C@H]1OC(=O)[C@H](C)[C@@H](O[C@H]2C[C@@](C)(OC)[C@@H](O)[C@H](C)O2)[C@H](C)[C@@H](O[C@@H]2O[C@H](C)C[C@H](N(C)C)[C@H]2O)[C@](C)(O)C[C@@H](C)CN(CCCNC(=O)[C@H]2[C@H](C)C[C@H]3[C@@H]4CCC5=CC(=O)C=C[C@]5(C)[C@@]4(F)[C@@H](O)C[C@@]32C)[C@H](C)[C@@H](O)[C@]1(C)O
EC50: 50 nM
